Laboratory results as given in PMC3368886, “ATPase Cycle and DNA Unwinding Kinetics of RecG Helicase” (PLoS ONE, 2012).

Columns and labels:
Format in all cases: biochemical
[1] = target: T1, RecG⋅DNA(A40:B40) (Thermotoga maritima, UniProt Q9WY48); experiment: Pi release with excess ATP, global fit to ATPase cycle model; conditions: 0.5 µM RecG, 2.5 µM DNA (A40:B40)
T1 construct: made in house
T1 sequence (Q9WY48 1-780): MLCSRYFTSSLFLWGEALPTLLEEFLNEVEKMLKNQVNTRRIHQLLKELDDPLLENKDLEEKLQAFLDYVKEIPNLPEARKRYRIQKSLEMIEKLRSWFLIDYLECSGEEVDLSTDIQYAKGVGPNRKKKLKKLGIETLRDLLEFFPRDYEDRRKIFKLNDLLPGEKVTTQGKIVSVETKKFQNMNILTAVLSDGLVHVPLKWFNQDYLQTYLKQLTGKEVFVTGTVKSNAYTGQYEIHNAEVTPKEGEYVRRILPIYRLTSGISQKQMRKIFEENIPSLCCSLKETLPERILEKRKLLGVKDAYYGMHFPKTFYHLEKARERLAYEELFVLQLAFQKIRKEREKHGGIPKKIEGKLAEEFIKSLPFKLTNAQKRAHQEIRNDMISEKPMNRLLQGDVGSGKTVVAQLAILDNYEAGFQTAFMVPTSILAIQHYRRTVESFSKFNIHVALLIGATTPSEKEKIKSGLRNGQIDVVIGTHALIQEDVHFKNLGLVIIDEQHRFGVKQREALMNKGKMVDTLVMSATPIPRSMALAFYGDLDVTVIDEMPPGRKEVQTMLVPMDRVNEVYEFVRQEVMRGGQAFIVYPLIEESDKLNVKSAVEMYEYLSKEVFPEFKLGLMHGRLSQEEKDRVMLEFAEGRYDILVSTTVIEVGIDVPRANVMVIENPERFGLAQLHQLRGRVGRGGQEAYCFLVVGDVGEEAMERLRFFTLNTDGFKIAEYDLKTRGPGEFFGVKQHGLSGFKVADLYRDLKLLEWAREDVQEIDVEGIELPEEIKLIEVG
Procedure: The rate of Pi release was measured after mixing RecG⋅DNA with excess ATP, using the phosphate biosensor, in the stopped-flow apparatus (Figure 6A). […] Both phases are dependent on ATP concentration. The lag decreased, while the rate of the linear phase increased with greater concentrations of ATP. The lag is due to the steps prior to Pi release, namely ATP binding and cleavage. […] Such a burst phase would result from the relatively fast Pi release of the initial cycle before the Pi release of subsequent cycles was limited by slow ADP release.
Figure 6 ATPase cycle measurements with unmodified nucleotides. (A) Phosphate measurements at different ATP concentrations. 0.5 µM RecG, premixed with 2.5 µM DNA (A40:B40), was then mixed in the stopped-flow apparatus with ATP at the micromolar concentrations shown, in the presence of 10 µM MDCC-PBP. (B) Best fit time courses of the Pi release, based upon a model of the ATPase cycle, as described in the text. Curves were obtained by glogal fitting the curves at different concentrations, using Global kinetic Explorer. Note that in comparison, the experimental time courses show a small transient of Pi at times <100 ms. This is likely to be due to free Pi and this behavior, overlaying a lag, has been observed previously in multi-turnover measurements. (C) ADP Release kinetics. 10 µM RecG⋅DNA (A40∶B40) was pre-bound with 10 µM ADP before mixing with an excess of mantADP (20 µM): these concentrations are final in the mixing chamber. The increase in fluorescence was fitted to single exponential giving the dissociation rate constant of 11.4 (±2.2) s^−1. Rate constants were independent of mantADP concentration in the range of 20–80 µM.
A scheme of the ATPase cycle (Figure 2) was used to simulate the data to assess the individual rate constants. […] The simulated traces (Figure 6B) were obtained from a global fit to the experimental data. This was done by allowing only the rate constants that have maximum influence on the curve shapes to vary. Cleavage and Pi release were assumed to be irreversible. For the fit, Pi release was fixed at 100 s^–1, ADP release at 12.5 s^–1, as the fitting was relatively insensitive to changes in these constants. […] The resulting best fit gave rate constants for ATP binding as 0.65 (±0.02) µM^−1s^−1, dissociation of ATP as 10.0 (±0.6) s^−1, cleavage as 7.1 (±0.1) s^−1. The fit gave a cleavage rate constant similar to the value of k cat from the steady-state analysis (Table 1a). The rate constant for ADP release may be only slightly larger than that of cleavage step.
Data were fitted to theoretical equations using the stopped-flow software or Grafit. Kinetic simulations were performed using Berkeley Madonna (Version 8.3, University of California at Berkeley) and using Global Kinetic Explorer (Kintek). […]

[2] = target: T1, RecG⋅DNA(A40:B40); experiment: Quench-flow measurement of cleavage step (mantADP formation, HPLC)
Procedure: Single turnover measurements of the cleavage step and Pi release were performed with excess RecG⋅DNA over mantATP using conditions of the mantATP fluorescence measurements, described above. Quench-flow measurements allowed the formation of nucleoside diphosphate to be monitored with high time resolution. MantATP was rapidly mixed with excess RecG⋅DNA, and the reaction mix was quenched in acid at particular time points. The mix was then analyzed by HPLC to quantify mantATP and mantADP, giving the time course of mantADP formation (Figure 4A). This time course had similar kinetics to the slow phase of the mant fluorescence trace (0.2 s^−1), supporting the idea that this phase is mantADP formation.
These were carried out using a HiTech RQF-63 apparatus using different length loops and flow rates to age reactions before quenching using 10% perchloric acid. Samples were analyzed for the ratio of mantATP to mantADP by HPLC, as described.

[3] = target: T2, RecG (Thermotoga maritima, UniProt Q9WY48); experiment: Phosphate-water oxygen exchange during hydrolysis; conditions: 20°C, Table 2 summary
T2 construct: made in house
T2 sequence (Q9WY48 1-780): T1 sequence (Q9WY48 1-780)

Structure (SMILES)	cleavage (global fit) [1]	dissociation of ATP (global fit) [1]	rate constant for ATP binding (global fit) [1]	rate of mantADP formation (quench-flow time course) ([2]; 0.5 µM mantATP, 2.5 µM RecG, 5 µM DNA) [s⁻¹]	hydrolytic cleavage slower than ATP ([2]; mantATP vs ATP) [fold]	k −2 (reverse of cleavage) [3] [s⁻¹]
Nc1ncnc2c1ncn2[C@@H]1O[C@H](COP(=O)(O)OP(=O)(O)OP(=O)(O)O)[C@@H](O)[C@H]1O [ATP]	7.1 (±0.1) s^−1	10.0 (±0.6) s^−1	0.65 (±0.02) µM^−1s^−1			
CNc1ccccc1C(=O)O[C@H]1[C@@H](O)[C@H](n2cnc3c(N)ncnc32)O[C@@H]1COP(=O)(O)OP(=O)(O)OP(=O)(O)O [mantATP, 2′(3′)-O-(N-methylanthraniloyl)ATP]				0.2	~10	<0.01
